Laboratory results reported in patent publication US8268306B2, “Pesticidal and antiparasitic compositions” (Centro de Ingenieria Genetica y Biotecnologia, priority 2001, dated 2012).

Columns and labels:
Dictyocaulus viviparus = test: In vitro nematicidal effect of hydrogen sulfide and chitinase, egg hatching; format: cell-based; details: Dictyocaulus eggs, emerging larvae after 24 hours; fraction E = 1 − Ntto/Nc; mean of 4 replicas
Method: (§1) Eggs from zoonematodes Haemonchus spp and Trichostrongylus colubriformis and Dictyocaulus viviparus were used, as well as parasitic phytonematode larvae (juveniles 2) from Melodoigyne incognita.
Collections of D. viviparous nematode were made from the infested lung of a bovine (cattle), previously sacrificed. The same procedure was used for Haemochus spp. and T. colubriformis; however, the females were allowed to lay their eggs for 2-3 hours.
(§2) From that moment on, manipulation was done under aseptic conditions in a vertical laminar flow, using 24-well tissue culture plates. The total volume of the medium that contained the females and the eggs was filtered with a sift net of 60 μm. The nematode eggs were trapped on the 30 μm net of a second sifts. It was introduced into a Hibitane solution at 0.5% for 3 minutes, followed by three washes with LB medium diluted 10 times in sterile distilled water.
(§3) Once disinfected, the eggs were removed from the sift and were carefully resuspended with a LB medium solution diluted 10 times in sterile distilled water. The final result of the distribution was checked by counting and registering the eggs in each well with an inverted Olympus microscope, observations of the uniformity of the evolutionary state in this phase were made too.
(§4) The Haemonchus spp and T. colubriformis' eggs hatch between 24 and 48 hours of incubation at 28° C., whereas the D. vivparus' eggs hatch before 24 hours. A good sample preparation is accomplished when in all the untreated controls more than 60% of hatching occurs in the previously foreseen times for each species.
(§5) The nematode's eggs and larvae were placed in a number of 100 individuals in approximately 2 ml of LB medium diluted 10 times. This volume was introduced into safety valves that allow the air to go through the liquid and, therefore, the gasses make contact with the eggs and larvae. […]
(§6) Twenty-four hours after starting the experiment the emerging larvae (Haemonchus sp., T. colubriformis and D. viviparous) and the number of live larvae (Melodogyne incognita) in all the treatments, were counted. […]

Melodoigyne incognita = test: In vitro nematicidal effect of hydrogen sulfide and chitinase, live larvae (juveniles 2); format: cell-based, Meloidogyne incognita; details: Meloidogyne larvae, live larvae after 24 hours; fraction E = 1 − Ntto/Nc; mean of 4 replicas
Method: as §1
The collection of egg mass of Meloidogyne incognita was performed from squash roots (Cucurbita pepo), previously infested and cultivated in greenhouses. For this operation a stereoscope microscope and needles with properly altered tips were used. The masses were put in sterile distilled water in Petri dishes at 28° C., in a number of 50 masses per dish. Daily observations were made to check egg hatching. In approximately 72 hours, there were enough larvae to start collecting and disinfecting.
The total volume of water containing the egg masses and the larvae were filtered through a sift net of 60 μm. From that moment on all the manipulation was done under aseptic conditions in a vertical laminar flow, using 24-well tissue culture plates. The eggs detached from the mass were unable to hatch and remained on the sift net of 30 μm; the larvae were collected with a further net of 5 μm. It was introduced into a Hibitane solution at 0.5% for 3 minutes followed by 3 washes with LB medium diluted 10 times in sterile distilled water. Once disinfected, the Meloidogyne incognita larvae were removed from the sift net and carefully resuspended with a LB medium solution diluted 10 times in sterile distilled water. The final collecting and disinfecting results were checked by counting and registering the live larvae with an inverted Olympus microscope.
as §5, with “larvae. Every valve was a replica for each treatment.” for “larvae.”
as §6

[1] = test system: Trichostrongylus colubriformis; test: In vitro nematicidal effect of hydrogen sulfide and chitinase, egg hatching; format: cell-based; details: Trichostrongilus eggs, emerging larvae after 24 hours; fraction E = 1 − Ntto/Nc; mean of 4 replicas
Method: as §1
(§7) Collections of Haemonchus spp and Trichostrongylus colubriformis nematodes were made from ovine (sheep) and bovine (cattle) abomasa, respectively. The adult female nematodes were washed in a physiological solution and treated with “Hibitane” (Chlorhexidine Acetate) at 0.5%, for 1 minute, the process developed at 37° C. Approximately 100 previously disinfected individuals were introduced into an Erlenmeyer containing 50 ml of LB medium solution, diluted 10 times in distilled sterile water, and were left laying their eggs overnight (8-10 hours).
as §2, §3, §4
(§8) The nematode's eggs and larvae were placed in a number of 100 individuals in approximately 2 ml of LB medium diluted 10 times. This volume was introduced into safety valves that allow the air to go through the liquid and, therefore, the gasses make contact with the eggs and larvae. Every valve was a replica for each treatment.
(§9) The hydrogen sulfide was obtained by a reaction against the chloride acid of two sulfide salts (Na2S and FeS), and from an anaerobial fermentation of bacterium Desulfovibrio desulfuricans subs. desulfuricans ATCC 27774 (isolated from an ovine rumen). The chitinolytic enzyme used was chitinase SIGMA C 1650, from bacterium Serratia marcescens.
(§10) The nematode's eggs and larvae under the study were subjected to the following treatments for 24 hours:
(§11) 1. Control treatment: chitinase not applied, and air circulated through the valve.
(§12) 2. Chitinase treatment: chitinase at a rate of 0.2 units per replica.
(§13) 3. Sulfide treatment: hydrogen sulfide from Na2S with a 0.2 flux at 0.3 mg/minute.
(§14) 4. Sulfide treatment: hydrogen sulfide from FeS with a 0.2 flux at 0.3 mg/minute.
(§15) 5. Sulfide treatment: hydrogen sulfide from Desulfovibrio desulfuricans with a 0.2 flux at 0.3 mg/minute.
(§16) 6. Combined treatment: simultaneous application of treatments 2 and 3.
(§17) 7. Combined treatment: simultaneous application of treatments 2 and 4.
(§18) 8. Combined treatment: simultaneous application of treatments 2 and 5.
(§19) All the above treatments had 4 replicas.
(§20) Twenty-four hours after starting the experiment the emerging larvae (Haemonchus sp., T. colubriformis and D. viviparous) and the number of live larvae (Melodogyne incognita) in all the treatments, were counted. This value is the mean of the 4 replicas in every treatment. The variance analysis (ANOVA) was applied to the results obtained in each nematode species in the study, separately; the Duncan test (Lerch G. 1977. La Experimentación en las ciencias biológicas y agrícolas. 1^ra edición, p.p. 203-308, Editorial Científico-Técnica, La Habana) was applied, which is also shown in table 1. […]

Haemonchus spp = test: as above; format: cell-based; details: Haemonchus eggs, emerging larvae after 24 hours; fraction E = 1 − Ntto/Nc; mean of 4 replicas
Method: as §1, §7, §2, §3, §4, §8, §9, §10, §11, §12, §13, §14, §15, §16, §17, §18, §19, §20

S [4. Esf, hydrogen sulfide]
Treatment effectiveness (E) (Dictyocaulus viviparus): 0.42
Treatment effectiveness (E) (Melodoigyne incognita): 0.52
Treatment effectiveness (E) [1]: 0.39
Treatment effectiveness (E) (Haemonchus spp): 0.40

S [3. Esn, hydrogen sulfide]
Treatment effectiveness (E) (Dictyocaulus viviparus): 0.44
Treatment effectiveness (E) (Melodoigyne incognita): 0.51
Treatment effectiveness (E) [1]: 0.40
Treatment effectiveness (E) (Haemonchus spp): 0.41

S [5. Esd, hydrogen sulfide]
Treatment effectiveness (E) (Dictyocaulus viviparus): 0.40
Treatment effectiveness (E) (Melodoigyne incognita): 0.47
Treatment effectiveness (E) [1]: 0.38
Treatment effectiveness (E) (Haemonchus spp): 0.37
